From US12709596B2, “Molecules” (ENA Respiratory Pty Ltd, priority 2019, dated 2026)

Legend:
[1] = Stability II: 9 day stability under accelerated conditions in EDTA/saline pH 5 by HPLC; format: physicochemical; conditions: 40° C./75% RH, 9 days
Protocol: Stability was measured using reversed phase HPLC with a UV detector analytical wavelength of 205 nm. Peak areas of each compound at the 9 day time point were compared with areas at time zero. Compound stability at day 9 was calculated as a percentage of the time zero peak area data. Compound stability was further assessed by comparison with a reference sample of the same compound. […] Thawed samples were sonicated and measured by HPLC.

human TLR2 (hTLR2) = molecular target: T1, human TLR2 (hTLR2) (Homo sapiens, UniProt O60603); assay: HEK-BLUE-hTLR2 cell assay (NF-kB induced SEAP, read at 620 nm); format: cell-based; conditions: HEK-BLUE-hTLR2 cells, 16 hr
T1 construct: host or cells: HEK293 (HEK-BLUE-hTLR2)
Protocol: The potency of the compounds as activators of human TLR-2s is tested in an in vitro assay in HEK-BLUE-hTLR2 cells.
HEK-BLUE-hTLR2 cells are designed for studying the stimulation of human TLR2 (hTLR2) by monitoring the activation of NF-kB. HEK-BLUE-hTLR2 cells are obtained by co-transfection of the hTLR2 and SEAP (secreted embryonic alkaline phosphatase) reporter genes into HEK293 cells. Stimulation with a TLR2 ligand activates NF-kB which induces the production of SEAP.
HEK-BLUE-hTLR2 cells were purchased from InvivoGen (San Diego, CA, USA). Cells were grown in DMEM supplemented with 10% FCS, 100 U/ml penicillin, 100 ug/ml streptomycin and 2 mM L-glutamine, 100 μg/mL Normocin in the presence of selection antibiotic purchased from InvivoGen and passaged when 70% confluence was reached per manufacturer's recommendation. […]

T1 sequence (O60603 21-784): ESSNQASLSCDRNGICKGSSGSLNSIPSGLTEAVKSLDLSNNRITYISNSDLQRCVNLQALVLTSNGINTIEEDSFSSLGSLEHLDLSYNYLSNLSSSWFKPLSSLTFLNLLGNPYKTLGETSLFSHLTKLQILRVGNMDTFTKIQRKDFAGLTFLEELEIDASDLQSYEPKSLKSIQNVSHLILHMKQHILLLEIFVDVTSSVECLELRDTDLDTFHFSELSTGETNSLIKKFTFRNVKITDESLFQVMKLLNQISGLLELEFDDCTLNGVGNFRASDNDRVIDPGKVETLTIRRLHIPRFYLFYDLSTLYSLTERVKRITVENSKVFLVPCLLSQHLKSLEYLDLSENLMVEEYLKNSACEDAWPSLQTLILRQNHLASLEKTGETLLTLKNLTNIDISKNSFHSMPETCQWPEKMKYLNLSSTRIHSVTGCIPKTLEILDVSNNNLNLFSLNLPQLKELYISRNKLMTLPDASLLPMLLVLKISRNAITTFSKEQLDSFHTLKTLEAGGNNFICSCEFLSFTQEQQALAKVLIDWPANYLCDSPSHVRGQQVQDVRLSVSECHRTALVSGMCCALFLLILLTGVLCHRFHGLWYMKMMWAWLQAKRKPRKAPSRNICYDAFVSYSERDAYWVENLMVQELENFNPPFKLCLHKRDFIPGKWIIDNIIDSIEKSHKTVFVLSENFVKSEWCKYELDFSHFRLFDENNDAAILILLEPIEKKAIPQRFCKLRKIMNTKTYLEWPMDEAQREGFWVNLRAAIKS
T1 sequence (Q9Y2C9 32-796 partner): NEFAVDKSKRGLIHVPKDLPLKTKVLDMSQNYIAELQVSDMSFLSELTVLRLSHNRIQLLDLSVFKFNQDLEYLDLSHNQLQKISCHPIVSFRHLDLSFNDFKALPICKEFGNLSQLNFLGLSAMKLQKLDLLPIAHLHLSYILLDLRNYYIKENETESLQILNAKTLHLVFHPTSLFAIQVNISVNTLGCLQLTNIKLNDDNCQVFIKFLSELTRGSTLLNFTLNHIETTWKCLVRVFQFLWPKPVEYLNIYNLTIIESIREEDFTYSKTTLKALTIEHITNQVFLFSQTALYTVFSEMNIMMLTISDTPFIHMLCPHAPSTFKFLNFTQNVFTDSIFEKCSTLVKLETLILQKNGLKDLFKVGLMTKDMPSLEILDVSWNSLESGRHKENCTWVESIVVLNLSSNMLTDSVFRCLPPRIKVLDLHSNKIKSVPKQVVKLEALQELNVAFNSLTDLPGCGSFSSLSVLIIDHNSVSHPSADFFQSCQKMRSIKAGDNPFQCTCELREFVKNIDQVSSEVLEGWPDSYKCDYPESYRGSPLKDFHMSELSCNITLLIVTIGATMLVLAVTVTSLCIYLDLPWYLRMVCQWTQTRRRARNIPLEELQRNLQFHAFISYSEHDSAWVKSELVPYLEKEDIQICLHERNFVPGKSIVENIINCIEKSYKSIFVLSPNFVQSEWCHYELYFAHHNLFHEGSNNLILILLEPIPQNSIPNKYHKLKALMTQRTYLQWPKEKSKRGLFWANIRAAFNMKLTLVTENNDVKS

With `CCCCCCCCCCCCCCC(C)C(=O)OCC[C@H](CSC[C@H](N)C(=O)N[C@@H](CO)C(=O)NCCOCCOCCOCCOCCOCCOCCOCCOCCOCCOCCOCCOCCOCCOCCOCCOCCOCCOCCOCCOCCOCCOCCOCCOCCOCCOCCOCCOCCC(=O)NCC(N)=O)OC(=O)C(C)CCCCCCCCCCCCCC` (stereo partly drawn) [Compound 36] the “stability over the 9 day test period” value ([1]; pH 5 EDTA/saline) was “substantial stability”, the “stability under the accelerated conditions relative to comparator compound” value ([1]; versus compound (8) of WO2019/119067) was “superior stability” and the “TLR2 activity (HEK-BLUE-hTLR2 assay, FIG. 4)” value (human TLR2 (hTLR2)) was “significant activity at TLR2”.
